We go through three compounds from PMC10928503 (Nature medicine, 2023).

The target of assay [1] is T1, FpGNAT (acyl-CoA N-acetyltransferase from F. prausnitzii) (Faecalibacterium duncaniae, UniProt C7H1G6).
T1 sequence (C7H1G6 1-201): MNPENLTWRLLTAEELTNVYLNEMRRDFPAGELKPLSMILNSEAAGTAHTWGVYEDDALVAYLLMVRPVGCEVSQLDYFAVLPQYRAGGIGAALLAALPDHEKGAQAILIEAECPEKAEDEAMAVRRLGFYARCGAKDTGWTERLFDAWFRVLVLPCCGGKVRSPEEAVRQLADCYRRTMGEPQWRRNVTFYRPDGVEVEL
The assay is described as follows: LC-MS/MS end-point acetylation assay. The following applies: 1 mM 5-ASA. The format is biochemical.

Assay [2] has as its system FcTHL (Firmicutes CAG:176 thiolase). Kind of assay: LC-MS/MS of N-acetyl 5-ASA formed, Michaelis-Menten. The format is biochemical, Firmicutes bacterium CAG:176. The following applies: 1 mM acetyl-CoA constant; 20 mM HEPES pH 7.5, 50 mM NaCl, 1 mM MgCl2, 1 mM TCEP, 5 uM enzyme, 37 °C.
The target of assay [3] is Firmicutes CAG:176 thiolase (FcTHL) (Firmicutes CAG:176 (uncultured Firmicutes)). Kind of assay: crystal structure.

For `CC(=O)SCCNC(=O)CCNC(=O)[C@H](O)C(C)(C)COP(=O)(O)OP(=O)(O)OC[C@H]1O[C@@H](n2cnc3c(N)ncnc32)[C@H](O)[C@@H]1OP(=O)(O)O` [acetyl-CoA], the “LC-MS/MS end-point acetylation assay” value in assay [1] (acetyl donor, same) was “convert 5-ASA to N-acetyl-5-ASA in the presence of acetyl-CoA”.

For the compound `Nc1ccc(O)c(C(=O)O)c1` [5-ASA], in assay [1] (1 mM acetyl-CoA, 50 uM enzyme, pH 7.5, 37 °C, 6 h), the “LC-MS/MS end-point acetylation assay” value was “convert 5-ASA to N-acetyl-5-ASA in the presence of acetyl-CoA”. Further, in assay [2], the Km stood at 1880 ± 460 µM.

Compound “Firmicutes CAG:176 thiolase (FcTHL) (enzyme)” registered a stoichiometry N in assay [3] of 4.
